Assay results published in patent US11434479B2, “Sialic acid binding polypeptide” (priority 2017, dated 2022).
Where a chain is given by its changes, count along the chain named. “Also recorded” adds a separate entry of the source.

Columns and labels:
[1] = target: T1, Streptococcus pneumoniae NanB fragment (residues 30-697, SEQ ID NO:4) variant Sia-PS5, E541Q (Streptococcus pneumoniae serotype 4, UniProt Q54727, E541Q); assay: Bio-layer Interferometry (BLI) steady-state binding to immobilized oligosaccharides; settings: in words
T1 construct: exemplified by a NanB fragment (residues 30-697); poly-histidine; made in house; host or cells: pET28a+ based plasmid
T1 sequence (Q54727 30-692 E541Q): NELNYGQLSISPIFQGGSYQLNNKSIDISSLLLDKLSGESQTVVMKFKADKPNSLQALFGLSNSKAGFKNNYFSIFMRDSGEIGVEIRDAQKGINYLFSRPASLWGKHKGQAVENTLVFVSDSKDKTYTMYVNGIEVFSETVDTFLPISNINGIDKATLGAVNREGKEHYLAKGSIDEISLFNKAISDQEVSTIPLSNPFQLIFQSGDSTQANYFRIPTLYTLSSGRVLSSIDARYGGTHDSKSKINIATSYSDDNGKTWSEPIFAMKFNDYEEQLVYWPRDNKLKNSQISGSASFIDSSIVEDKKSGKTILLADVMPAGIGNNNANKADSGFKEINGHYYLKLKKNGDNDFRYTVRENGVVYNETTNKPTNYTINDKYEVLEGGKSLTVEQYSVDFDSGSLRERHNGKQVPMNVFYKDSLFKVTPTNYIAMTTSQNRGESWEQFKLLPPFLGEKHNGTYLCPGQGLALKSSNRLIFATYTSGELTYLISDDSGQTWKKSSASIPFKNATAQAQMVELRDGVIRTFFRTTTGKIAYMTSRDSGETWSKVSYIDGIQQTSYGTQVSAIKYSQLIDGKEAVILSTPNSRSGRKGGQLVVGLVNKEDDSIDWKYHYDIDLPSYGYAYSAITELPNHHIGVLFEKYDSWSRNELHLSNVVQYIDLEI
Source text: (§1) Lsp=lactose (no sialic acid), 3′SL=α2,3-sialyllactose, 6′SL=α2,6-sialyllactose, GD3=GD3 oligosaccharide that contains a terminal α2,8-linked Neu5Ac residue and an internal α2,3-linked Neu5Ac residue.
(§2) The pan-specific sialic acid-recognizing affinity reagent of the invention is exemplified by a NanB fragment (residues 30-697; SEQ ID NO:4) with a single mutation. Exemplary mutation sites include Y653, D270, and E541. Exemplary pan-specific affinity reagents, each having a single mutation in the NanB GH domain as noted, are shown in Table 2 and include Sia-PS1 (Y653F), Sia-PS2 (D270A), Sia-PS3 (D270N), Sia-PS4 (E541A), and Sia-PS5 (E541Q). […] They reduce (Sia-PS2 and Sia-PS3) or effectively eliminate (Sia-PS1, Sia-PS4, and Sia-PS5) catalytic activity, and they broaden specificity for sialic acid ligand binding. The pan-specific sialic acid-recognizing affinity reagent we chose for further validation study was Sia-PS1 that contains the Y653F at active site residue Tyr653. This one mutation, which involves removal of a single hydroxyl group, not only eliminates enzyme activity, but astonishingly introduces pan-specific binding into the mutated, inactivated enzyme, despite its distance from the carbohydrate binding module (CBM) domain of the NanB.
(§3) The flowchart presented in FIG. 2 outlines schematically the methods employed in Example I and II to screen, optimize and select the Lectenz® candidates. The specificity and affinity of potential Lectenz® candidates is evaluated through structurally-guided site-specific and/or site-saturation mutagenesis assays designed to enable the selection of optimal clones. Bio-layer Interferometry (BLI) is used to determine the binding kinetics and affinities for binding to glycans and glycoproteins. Affinity chromatography is performed by immobilizing the Lectenz® candidates in a column format to evaluate their ability to fractionate sialylated- and asialo-glycans and glycoconjugates. All promising Lectenz® candidates are screened against the glycan array at the CFG, which currently contains over 600 O- and N-linked glycans.
(§4) Steady-state binding constants between Lectenz® candidates and sialic acid ligands were measured by BLI.

[2] = target: T2, Streptococcus pneumoniae NanB fragment (residues 30-697, SEQ ID NO:4) variant Sia-PS1, Y653F (Streptococcus pneumoniae serotype 4, UniProt Q54727, Y653F); assay: as above; settings: in words
T2 construct: exemplified by a NanB fragment (residues 30-697); made in house; host or cells: pET28a+ based plasmid
T2 sequence (Q54727 30-692 Y653F): T1 sequence (Q54727 30-692 E541Q) with Q512E, Y624F
Source text: as §1, §2, §3, §4

| Compound | binding affinity [1] | binding affinity [2] |
| --- | --- | --- |
| CC(=O)N[C@H]1[C@H]([C@H](O)[C@H](O)CO)O[C@@](O[C@H]2[C@@H](O)[C@@H](CO)O[C@@H](O[C@H]3[C@H](O)[C@@H](O)C(O)O[C@@H]3CO)[C@@H]2O)(C(=O)O)C[C@@H]1O (stereo partly drawn) [3′SL, α2,3-sialyllactose] | micromolar or sub-micromolar | micromolar or sub-micromolar; also recorded: sub-micromolar |
| CC(=O)N[C@H]1[C@H]([C@H](O)[C@H](O)CO)O[C@@](OC[C@H]2O[C@@H](O[C@H]3[C@H](O)[C@@H](O)C(O)O[C@@H]3CO)[C@H](O)[C@@H](O)[C@H]2O)(C(=O)O)C[C@@H]1O (stereo partly drawn) [6′SL, 6′-sialyllactose (Neu5Acα2,6Galβ1, 4Glcβ, or 6′SL)] | micromolar or sub-micromolar | micromolar or sub-micromolar; also recorded: sub-micromolar |
| CC(=O)N[C@H]1[C@H]([C@H](O)[C@H](O)CO)O[C@@](O[C@H](CO)[C@@H](O)[C@@H]2O[C@@](O[C@H]3[C@@H](O)[C@@H](CO)O[C@@H](O[C@H]4[C@H](O)[C@@H](O)C(O)O[C@@H]4CO)[C@@H]3O)(C(=O)O)C[C@H](O)[C@H]2NC(C)=O)(C(=O)O)C[C@@H]1O (stereo partly drawn) [GD3, Neu5Acα2,8Neu5Acα2,3Galβ1, 4Glcβ] | micromolar or sub-micromolar | micromolar or sub-micromolar; also recorded: sub-micromolar |
